Source: patent US8552013B2, “Heterocyclic compounds based on N6-substituted adenine, methods of their preparation, their use for preparation of drugs, cosmetic preparations and growth regulators, pharmaceutical preparations, cosmetic preparations and growth regulators containing these compounds” (USTAV Experimentalni Botaniky Akademie Ved Ceske Republiky, priority 2001, dated 2013)

Assays:
[1] = test system: breast carcinoma cell line MCF-7; experiment: Calcein AM cytotoxicity, MCF7; type: cell-based, human; conditions: Homo sapiens, MCF7, 72 h, read-out: IC 50, MCF7
Description: (§1) One of the parameters used, as the basis for cytotoxicity assays, is the metabolic activity of viable cells. For example, a microtiter assay, which uses the Calcein AM, is now widely used to quantitate cell proliferation and cytotoxicity. For instance, this assay is used in drug screening programs and in chemosensitivity testing. Because only metabolically active cells cleave Calcein AM, these assays detect viable cells exclusively. The quantity of reduced Calcein AM corresponds to the number of vital cells in the culture.
(§2) The cells were maintained in Nunc/Corning 80 cm^2 plastic tissue culture flasks and cultured in cell culture medium (DMEM with 5 g/l glucose, 2 mM glutamine, 100 U/ml penicillin, 100 μg/ml streptomycin, 10% fetal calf serum and sodium bicarbonate).
(§3) The cell suspensions that were prepared and diluted according to the particular cell type and the expected target cell density (2.500-30.000 cells per well based on cell growth characteristics) were added by pipette (80 μl) into 96/well microtiter plates. Inoculates were allowed a pre-incubation period of 24 hours at 37° C. and 5% CO2 for stabilisation. Four-fold dilutions of the intended test concentration were added at time zero in 20 μl aliquots to the microtiter plate wells. Usually, test compound was evaluated at six 4-fold dilutions. […] All drug concentrations were examined in duplicates. Incubations of cells with the test compounds lasted for 72 hours at 37° C., in 5% CO2 atmosphere and 100% humidity. At the end of incubation period, the cells were assayed by using the Calcein AM. Ten microliters of the stock solution were pipetted into each well and incubated further for 1 hours. Fluorescence (FD) was measured with the Labsystem FIA Reader Fluoroscan Ascent (UK).

[2] = test system: tobacco callus Nicotiana tabacum L. cv. Wisconsin 38; experiment: Cytokinin-dependent tobacco callus growth; type: cell-based; conditions: fresh callus weight at the concentration with highest activity
Procedure: Cytokinin-dependent tobacco callus Nicotiana tabacum L. cv. Wisconsin 38 was maintained at 25° C. in darkness on modified Murashige-Skoog medium, containing per 1 liter: 4 μmol nicotinic acid, 2.4 μmol pyridoxine hydrochloride, 1.2 μmol thiamine, 26.6 μmol glycine, 1.37 μmol glutamine, 1.8 μmol myo-inositol, 30 g of sucrose, 8 g of agar, 5.37 μmol α-naphtylacetic acid (NAA) and 0.5 μmol benzylaminopurine (BAP). Subcultivation was carried out every three weeks. Fourteen days before the bioassay, the callus tissue was transferred to the media without 6-benzylaminopurine (BAP). Biological activity was determined from the increase in fresh callus weight after four weeks of cultivation. Five replicates were prepared for each cytokinin concentration and the entire test was repeated twice. From the obtained data, the concentration with highest activity was selected for each compound tested. Relative activity of the compound at this concentration was calculated (Tab. 6). The activity obtained for 10^−4 M 6-benzylaminopurine (BAP) was postulated as 100%. The cytokinins to be tested were dissolved in dimethylsulfoxide (DMSO) and the solution brought up to 10^−3M with distilled water. This stock was further diluted in the respective media used for the biotest to concentrations ranging from 10^−8M to 10^−4M.

[3] = test system: Triticum aestivum cv. Hereward leaf tips; experiment: Retention of chlorophyll in excised wheat leaf tips; type: in vivo; conditions: chlorophyll retention at the concentration with highest activity
Procedure: Seeds of winter wheat, Triticum aestivum cv. Hereward, were washed under running water for 24 hours and then sown on vermiculite soaked with Knop's solution. They were placed in the grown chamber at 25° C. with a 16/8 h light period at 50 μmol.m^−2.s^−1. After 7 days, the first leaf was fully developed and the second leaf had started to grow. A tip section of the first leaf, approximately 35 mm long, was removed from 5 seedlings and trimmed slightly to a combined weight of 100 mg. The basal ends of the five leaf tips were placed in the wells of a microtiter polystyrene plate containing 150 μl of a cytokinin solution each. The entire plate was inserted into a plastic box lined with paper tissues soaked in distilled water to prevent leaf sections from drying out. After a 96 h incubation in the dark at 25° C., the leaves were removed and chlorophyll extracted by heating at 80° C. for 10 min in 5 ml of 80% ethanol (v/v). The sample volume was then restored to 5 ml by the addition of 80% ethanol (v/v). The absorbency of the extract was recorded at 665 nm. In addition, chlorophyll extracts from fresh leaves and leaf tips incubated in deionised water were measured. From the obtained data, the concentration with highest activity was selected for each compound tested. Relative activity of the compound at this concentration was calculated (Tab. 6). The activity obtained for 10^−4 M 6-benzylaminopurine (BAP) was postulated as 100%. The values shown are means of five replicates and the whole experiment was repeated twice. The cytokinins to be tested were dissolved in dimethylsulfoxide (DMSO) and the solution brought up to 10^−3M with distilled water. This stock was further diluted in distilled water to concentrations ranging from 10^−8M to 10^−4M.

K-562 = experiment: Calcein AM cytotoxicity, K-562; type: cell-based; conditions: Homo sapiens, K562, 72 h, read-out: IC 50, K-562
Description: as §1, §2, §3

[4] = test system: Amaranthus caudatus cotyledon/hypocotyl explants; experiment: Amaranthus bioassay, betacyanin content; type: in vivo; conditions: betacyanin content at the concentration with highest activity
Procedure: Standard Amaranthus bioassay was performed with several modifications. The seeds of Amaranthus caudatus var. atropurpurea were surface-sterilised in 10% N-chlorobenzenesulfonamide (w/v) for 10 min and washed 5 times in deionized water. They were placed in 14 cm Petri dishes containing paper tissues saturated with deionized water. After 72 h of cultivation at 25° C. in darkness, the roots of the seedlings were cut off. The explants, consisting of two cotyledons and hypocotyls, were placed in 5 cm Petri dishes on two layers of filter paper soaked in 1 ml of incubation medium containing 10 μmol NA2HPO4-KH2PO4, pH 6.8, 5 μmol tyrosine and the cytokinin to be tested. There were 20 explants per dish. The procedure was carried out under a green safe light in a darkroom. After a 48 h of incubation at 25° C. in darkness, betacyanin was extracted by freezing the explants in 4 ml […] acetic acid. The concentration of betacyanin was determined by comparing the absorbance at 537 nm and 620 nm as follows: ΔA=[…] nm-A620 nm. From the obtained data, the concentration with highest activity was selected for each compound tested. Relative activity of the compound at this concentration was calculated (Tab. 6). […] The values shown in table 8 are means of five replicates and the entire test was repeated twice. The cytokinins to be tested were dissolved in dimethylsulfoxide (DMSO) and the solution brought up to 10^-3M with distilled water. This stock was further diluted in the respective media used for the biotest to concentrations ranging from 10^-8M to 10^-4M.

[5] = test system: promyelocytic HL-60 leukemia; experiment: Calcein AM cytotoxicity, HL60; type: cell-based, human; conditions: Homo sapiens, HL-60, 72 h, read-out: IC 50, HL60
Description: as §1, §2, §3

[6] = test system: T-lymphoblastic leukemia cell line CEM; experiment: Calcein AM cytotoxicity, CEM; type: cell-based, human
Description: as §1, §2, §3

HOS = experiment: Calcein AM cytotoxicity, HOS; type: cell-based; conditions: Homo sapiens, HOS, 72 h
Description: as §1
Human T-lymphoblastic leukemia cell line CEM; promyelocytic HL-60 and monocytic U937 leukemias; breast carcinoma cell lines MCF-7, BT549, MDA-MB-231; glioblastoma U87MG cells; cervical carcinoma cells HELA; sarcoma cells U2OS and Saos2; hepatocellular carcinoma HepG2; mouse fibroblasts NIH3T3; mouse immortalized bone marrow macrophages B2.4 and B10A.4; P388D1 and L1210 leukemia; B16 and B16F10 melanomas were used for routine screening of compounds. The cells were maintained in Nunc/Corning 80 cm^2 plastic tissue culture flasks and cultured in cell culture medium (DMEM with 5 g/l glucose, 2 mM glutamine, 100 U/ml penicillin, 100 μg/ml streptomycin, 10% fetal calf serum and sodium bicarbonate).
The cell suspensions that were prepared and diluted according to the particular cell type and the expected target cell density (2.500-30.000 cells per well based on cell growth characteristics) were added by pipette (80 μl) into 96/well microtiter plates. Inoculates were allowed a pre-incubation period of 24 hours at 37° C. and 5% CO2 for stabilisation. Four-fold dilutions of the intended test concentration were added at time zero in 20 μl aliquots to the microtiter plate wells. Usually, test compound was evaluated at six 4-fold dilutions. In routine testing, the highest well concentration was […], but it can be the matter of change dependent on the agent. All drug concentrations were examined in duplicates. Incubations of cells with the test compounds lasted for 72 hours at 37° C., in 5% CO2 atmosphere and 100% humidity. At the end of incubation period, the cells were assayed by using the Calcein AM. Ten microliters of the stock solution were pipetted into each well and incubated further for 1 hours. Fluorescence (FD) was measured with the Labsystem FIA Reader Fluoroscan Ascent (UK). The tumour cell survival (GI50) was calculated using the following equitation: TCS═(FDdrug exposed well/mean FDcontrol wells)×100%. The GI50 value, the drug concentration lethal to 50% of the tumour cells, was calculated from the obtained dose response curves (FIG. 1).

[7] = test system: Rosa hybrida (pot rose cultivar) explants; experiment: In vitro and post vitro shoot multiplication and rooting of rose; type: in vivo
Procedure: The aim of this experiment was to test whether the new compounds are of practical use in tissue culture practice. The multiplication rate was investigated and the post vitro effects on rooting were examined. Rosa hybrida (pot rose cultivar) was cultured in 350 ml vessels with a screw on polycarbonate lid. Each culture vessel contained 100 ml autoclaved medium (120° C., 20 min). The cultures were maintained at 23±2° C. under a 16 h photoperiod at 40 μM m^−2 s^−1 PAR. The basal medium (BMR) contained Murashige and Skoog (1962) macroelements, microelements and vitamins, 95 μM NaFeEDTA, 555 μM myo-inositol, 111 mM sucrose, 1.332 mM glycine, 684 μM L-glutamine and 7 g/l agar. This medium was supplemented with 10 μM BA, mT, oMeOBAP or mMeOBAP (compound no. 14 and 15, respectively). The control medium didn't contain any cytokinin. After a culture period of 8 weeks, the number of induced shoots per explant was determined, as well as root number/explant and total root length/explant. The roots were removed and the explants (shoot clusters) were planted in unfertilised peat. After four weeks of acclimatising in a fog unit, root number and root length was determined.

[8] = Ex vitro, four weeks of acclimatising

Structure (SMILES)	IC50 [1]	Activity (%) [10^−4 mol · l^−1 BAP = 100%] [2]	Activity (%) [10^−4 mol · l^−1 BAP = 100%] [3]	IC50 (K-562)	activity (%) [10^−5 mol · l^−1 BAP = 100%] [4]	IC50 [5]	IC50 ([6]; 72 hours, listed as 2,4diFBAP)	IC50 ([6]; Homo sapiens, 72 h)	IC50 (HOS)	Root number per plant [7, 8]	Total root length per plant [7, 8]	Flower number per explant ([7]; In vitro, 10 μM, 8 weeks)	Number of new shoots per explant ([7]; In vitro, 10 μM, 8 weeks)	Root number per explant ([7]; In vitro, 10 μM, 8 weeks)	Total root length per explant ([7]; In vitro, 10 μM, 8 weeks)
Fc1ccc(CNc2ncnc3nc[nH]c23)c(F)c1F [6-(2,3,4-trifluorobenzylamino)purine]	> 167 µM	76 (±4) %	131 (±22) %	> 167 µM	94 (±3) %	> 167 µM									
Fc1ccc(CNc2ncnc3nc[nH]c23)c(F)c1 [6-(2,4-difluorobenzylamino)purine]	> 167 µM	95 (±1) %	139 (±2) %	> 167 µM	88 (±7) %	> 167 µM	146 µM	140 µM							
COc1ccccc1CNc1ncnc2nc[nH]c12 [6-(2-methoxybenzylamino)purine]		79 (±5) %	269 (±12) %		77 (±5) %				> 167 µM	2.5	8.5 cm	0.29	1.0	0.0	0.0 cm
Clc1ccc(CNc2ncnc3nc[nH]c23)cc1Cl [6-(3,4-dichlorobenzylamino)purine]		45 (±7) %	117 (±22) %		63 (±10) %										
Fc1cc(F)cc(CNc2ncnc3nc[nH]c23)c1 [6-(3,5-difluorobenzylamino)purine]		97 (±3) %	156 (±4) %		108 (±2) %										
COc1cc(CNc2ncnc3nc[nH]c23)cc(OC)c1 [6-(3,5-dimethoxybenzylamino)purine]	> 167 µM		16 (±1) %	> 167 µM	1.5 (±1) %	> 167 µM		> 167 µM							
